The source of these data is US8871934B2, “Fluorene compound and pharmaceutical use thereof” (Japan Tobacco Inc., priority 2008, dated 2014).

Like-named read-outs stand apart in the source and are kept apart here.

This assay has as its target human PDHK2 (hPDHK2) (Homo sapiens (Human), UniProt Q15119). In words: Inhibitory action of PDHK activity in vitro (kinase reaction, residual PDH activity measured). It counts as biochemical.
The mark [1] stands for this setting: PDHK inhibitory activity, class symbol of IC50.
The mark [2] stands for this setting: read-out: PDHK inhibitory activity IC50.
[3] abbreviates: PDHK inhibitory activity (class symbol).
Setting [4] is: class symbol of IC50, read-out: PDHK inhibitory activity.

In the case of `COC(=O)C1CCN(c2ccc3c(c2)C(O)(C(F)(F)F)c2ccccc2-3)CC1` (stereo not drawn) [compound 218], the IC50 was more than 1000 nM under setting [1] and 1840 nM under setting [2].

In the case of `CC(C)(C)C(=O)N1CCN(c2cc(Cl)c3c(c2)C(O)(C(F)(F)F)c2ccccc2-3)CC1` (stereo not drawn) [compound 271], the IC50 reads like this: under setting [1], less than 100 nM; under setting [2], 56 nM.

In the case of `CC(C)Cn1cc(-c2cc(CO)c3c(c2)C(O)(C(F)(F)F)c2ccccc2-3)cn1` (stereo not drawn) [compound 649], the IC50 under setting [3] is less than 100 nM and the IC50 under setting [2] came to 37 nM.

On to `Cn1cc(-c2cc(CO)c3c(c2)C(O)(C(F)(F)F)c2ccccc2-3)cn1` (stereo not drawn) [compound 570], for which the IC50 runs as follows: under setting [1], 100 to 1000 nM; under setting [2], 110 nM.

Consider `O=C(O)Cn1cc(-c2cccc3c2-c2ccccc2C3(O)C(F)(F)F)cn1` (stereo not drawn) [compound 483], for which the IC50 under setting [1] was in the range of 100 to 1000 nM and the IC50 under setting [2] worked out at 542 nM.

For `CN(C)C(=O)c1cc(-c2cnn(C)c2)c2c(c1)C(O)(C(F)(F)F)c1ccccc1-2` (stereo not drawn) [compound 354], the IC50 runs as follows: under setting [1], less than 100 nM; under setting [2], 71 nM.

Take `OC1(C(F)(F)F)c2ccccc2-c2ccc(OC3CCC3)cc21` (stereo not drawn) [compound 128]: the IC50 was more than 1000 nM under setting [1] and 2400 nM under setting [2].

Regarding `O=C(O)C1CCCN1C(=O)c1ccc2c(c1)C(O)(C(F)(F)F)c1ccccc1-2` (stereo not drawn) [compound 168], the IC50 is, setting by setting: under setting [1], more than 1000 nM; under setting [2], more than 10000 nM.

Consider `OCCn1cc(-c2cc(F)cc3c2-c2ccccc2[C@]3(O)C(F)(F)F)cn1` (stereo in doubt) [compound 531], for which the IC50 is, setting by setting: (PDHK inhibitory activity IC50 (μmol/L)) 20 nM; under setting [1], less than 100 nM.

Consider `O=C(c1cc(-c2cncnc2)c2c(c1)C(O)(C(F)(F)F)c1ccccc1-2)N1CCCC1` (stereo not drawn) [compound 370], for which the IC50 under setting [1] lay in the range of 100 to 1000 nM and the IC50 under setting [2] came to 114 nM.

In the case of `Cc1cc(C(=O)NCCCCO)cc2c1-c1ccccc1C2(O)C(F)(F)F` (stereo not drawn) [compound 338], the IC50 is more than 1000 nM under setting [4] and more than 1000 nM under setting [2].

Regarding `O=C1COCCN1CCOc1ccc2c(c1)C(O)(C(F)(F)F)c1ccccc1-2` (stereo not drawn) [compound 490], the IC50 was 100 to 1000 nM under setting [1] and 223 nM under setting [2].

Take `CC(Oc1ccc2c(c1)C(O)(C(F)(F)F)c1ccccc1-2)C(=O)O` (stereo not drawn) [compound 413]: the IC50 was more than 1000 nM under setting [1] and 1230 nM under setting [2].

As for `Cc1cc(C(=O)N2CC(O)C2)cc2c1-c1ccccc1C2(O)C(F)(F)F` (stereo not drawn) [compound 350], the IC50 is, setting by setting: under setting [1], 100 to 1000 nM; under setting [2], 152 nM.

In the case of `OC1(C(F)(F)F)c2ccccc2-c2c(F)cccc21` (stereo not drawn) [compound 11], the IC50 is more than 1000 nM under setting [1] and 6790 nM under setting [2].

For `O=C(O)c1cc(-c2cncnc2)c2c(c1)C(O)(C(F)(F)F)c1ccccc1-2` (stereo not drawn) [compound 367], the IC50 by setting is: under setting [4], more than 1000 nM; under setting [2], more than 1000 nM.

In the case of `CCCCCOc1ccc2c(c1)C(O)(C(F)(F)F)c1ccccc1-2` (stereo not drawn) [compound 278], the IC50 was 100 to 1000 nM under setting [1] and 862 nM under setting [2].

As to `COC(=O)COc1cc(Br)c2c(c1)C(O)(C(F)(F)F)c1ccccc1-2` (single isomer, unassigned) [compound 451, (4-bromo-9-hydroxy-9-trifluoromethyl-9H-fluoren-2-yloxy)-acetic acid methyl ester], the IC50 runs as follows: under setting [1], 100 to 1000 nM; under setting [2], 102 nM.

Turning to `COC(=O)c1cc(Cl)c2c(c1)C(O)(C(F)(F)F)c1ccccc1-2` (stereo not drawn) [compound 61], the IC50 was 100 to 1000 nM under setting [1] and 294 nM under setting [2].

For the compound `O=C(c1cc(Cl)c2c(c1)C(O)(C(F)(F)F)c1ccccc1-2)N1CC(CO)C1` (stereo not drawn) [compound 330], the IC50 is 100 to 1000 nM under setting [1] and 125 nM under setting [2].

Regarding `NC(=O)C1CCCN1C(=O)c1ccc2c(c1)C(O)(C(F)(F)F)c1ccccc1-2` (stereo not drawn) [compound 176], the IC50 was more than 1000 nM under setting [1] and 8010 nM under setting [2].

In the case of `COc1cccc2c1-c1ccccc1C2(O)C(F)(F)F` (stereo not drawn) [compound 46], the IC50 was more than 1000 nM under setting [1] and 6490 nM under setting [2].

In the case of `CNC(=O)C1CCN(c2ccc3c(c2)C(O)(C(F)(F)F)c2ccccc2-3)CC1` (stereo not drawn) [compound 231], the IC50 is, setting by setting: under setting [1], more than 1000 nM; under setting [2], 3610 nM.

As for `CNC(=O)COC1CN(C(=O)c2ccc3c(c2)C(O)(C(F)(F)F)c2ccccc2-3)C1` (stereo not drawn) [compound 117], the IC50 is 100 to 1000 nM under setting [1] and 909 nM under setting [2].

For the compound `O=C(c1ccc2c(c1)C(O)(C(F)(F)F)c1ccccc1-2)N1CC(C(=O)N2CCC(O)CC2)C1` (stereo not drawn) [compound 203], the IC50 by setting is: under setting [1], 100 to 1000 nM; under setting [2], 423 nM.

For the compound `CC(=O)Nc1ccccc1-c1ccc2c(c1)C(O)(C(F)(F)F)c1ccccc1-2` (stereo not drawn) [compound 190], the IC50 by setting is: under setting [1], more than 1000 nM; under setting [2], more than 10000 nM.

Regarding `CN(C)C(=O)COc1ccc2c(c1)C(O)(C(F)(F)F)c1ccccc1-2` (stereo not drawn) [compound 290], the IC50 runs as follows: under setting [1], 100 to 1000 nM; under setting [2], 793 nM.

For `CC(C)COc1ccc2c(c1)C(O)(C(F)(F)F)c1ccccc1-2` (stereo not drawn) [compound 264], the IC50 under setting [1] was more than 1000 nM and the IC50 under setting [2] came to 1170 nM.

Consider `Cc1cc(-c2cnn(C(C)(C)CC(=O)O)c2)c2c(c1)C(O)(C(F)(F)F)c1ccccc1-2` (single isomer, unassigned) [compound 576], for which the IC50 is less than 100 nM under setting [1] and 30 nM under setting [2].

Take `Cc1cc(-c2cnn(CC(CO)CO)c2)c2c(c1)C(O)(C(F)(F)F)c1ccccc1-2` (single isomer, unassigned) [compound 663]: the IC50 was less than 100 nM under setting [3] and 18 nM under setting [2].

Turning to `COC(=O)C1CCN(C(=O)c2ccc3c(c2)C(O)(C(F)(F)F)c2ccccc2-3)C1` (stereo not drawn) [compound 206], the IC50 is more than 1000 nM under setting [1] and 2240 nM under setting [2].

As for `OC1(C(F)(F)F)c2ccccc2-c2ccc(Oc3ccccc3)cc21` (stereo not drawn) [compound 187], the IC50 is more than 1000 nM under setting [1] and 2480 nM under setting [2].

For the compound `CCn1cc(-c2cc(OCCCC(=O)O)cc3c2-c2ccccc2C3(O)C(F)(F)F)cn1` (single isomer, unassigned) [compound 554], the IC50 reads like this: under setting [1], less than 100 nM; under setting [2], 20 nM.

Turning to `O=C(O)c1ccc(-c2cc(Cl)c3c(c2)C(O)(C(F)(F)F)c2ccccc2-3)cc1` (stereo not drawn) [compound 234], the IC50 runs as follows: under setting [1], less than 100 nM; under setting [2], 58 nM.

Take `Cc1nn(C)c(C)c1-c1ccc2c(c1)C(O)(C(F)(F)F)c1ccccc1-2` (stereo not drawn) [compound 555]: the IC50 by setting is: under setting [4], more than 1000 nM; under setting [2], more than 1000 nM.

For `N#Cc1ccc2c(c1)C(O)(C(F)(F)F)c1ccccc1-2` (stereo not drawn) [compound 671], the IC50 reads like this: under setting [3], more than 1000 nM; under setting [2], 1440 nM.

Take `OCc1ccc2c(c1)C(O)(C(F)(F)F)c1ccccc1-2` (stereo not drawn) [compound 69]: the IC50 was more than 1000 nM under setting [1] and 16000 nM under setting [2].

For `NC(=O)COC1CN(C(=O)c2ccc3c(c2)C(O)(C(F)(F)F)c2ccccc2-3)C1` (stereo not drawn) [compound 116], the IC50 runs as follows: under setting [1], 100 to 1000 nM; under setting [2], 601 nM.

Regarding `O=C1CCCCN1CCCOc1ccc2c(c1)C(O)(C(F)(F)F)c1ccccc1-2` (stereo not drawn) [compound 401], the IC50 under setting [1] lay within 100 to 1000 nM and the IC50 under setting [2] came to 554 nM.
